This note sets out measurements from BindingDB's records for doi:10.1124/jpet.104.074146 (Meiji Seika Kaisha, 2005).

Structures are written as SMILES.

The target in assay [1] is T1, Estrogen receptor (Homo sapiens, UniProt P03372).
T1 sequence (P03372 whole entry): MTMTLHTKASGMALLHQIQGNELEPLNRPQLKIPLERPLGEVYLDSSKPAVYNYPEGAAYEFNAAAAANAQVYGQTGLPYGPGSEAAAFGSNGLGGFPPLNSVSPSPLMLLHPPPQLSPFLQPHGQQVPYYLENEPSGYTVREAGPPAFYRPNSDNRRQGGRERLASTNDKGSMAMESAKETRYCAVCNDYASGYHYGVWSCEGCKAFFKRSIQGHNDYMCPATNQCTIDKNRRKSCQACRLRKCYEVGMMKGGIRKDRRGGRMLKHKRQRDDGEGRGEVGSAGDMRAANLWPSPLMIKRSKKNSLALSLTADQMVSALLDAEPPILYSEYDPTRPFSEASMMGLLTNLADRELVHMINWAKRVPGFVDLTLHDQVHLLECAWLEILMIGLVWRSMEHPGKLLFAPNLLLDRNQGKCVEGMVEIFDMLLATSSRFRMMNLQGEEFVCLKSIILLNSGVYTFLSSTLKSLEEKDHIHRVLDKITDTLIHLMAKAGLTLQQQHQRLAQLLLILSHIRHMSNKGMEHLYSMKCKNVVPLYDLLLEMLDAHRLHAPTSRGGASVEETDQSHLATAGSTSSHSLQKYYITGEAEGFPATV

Assay [2] deals with T2, Glucocorticoid receptor (Homo sapiens, UniProt P04150).
T2 sequence (P04150 whole entry): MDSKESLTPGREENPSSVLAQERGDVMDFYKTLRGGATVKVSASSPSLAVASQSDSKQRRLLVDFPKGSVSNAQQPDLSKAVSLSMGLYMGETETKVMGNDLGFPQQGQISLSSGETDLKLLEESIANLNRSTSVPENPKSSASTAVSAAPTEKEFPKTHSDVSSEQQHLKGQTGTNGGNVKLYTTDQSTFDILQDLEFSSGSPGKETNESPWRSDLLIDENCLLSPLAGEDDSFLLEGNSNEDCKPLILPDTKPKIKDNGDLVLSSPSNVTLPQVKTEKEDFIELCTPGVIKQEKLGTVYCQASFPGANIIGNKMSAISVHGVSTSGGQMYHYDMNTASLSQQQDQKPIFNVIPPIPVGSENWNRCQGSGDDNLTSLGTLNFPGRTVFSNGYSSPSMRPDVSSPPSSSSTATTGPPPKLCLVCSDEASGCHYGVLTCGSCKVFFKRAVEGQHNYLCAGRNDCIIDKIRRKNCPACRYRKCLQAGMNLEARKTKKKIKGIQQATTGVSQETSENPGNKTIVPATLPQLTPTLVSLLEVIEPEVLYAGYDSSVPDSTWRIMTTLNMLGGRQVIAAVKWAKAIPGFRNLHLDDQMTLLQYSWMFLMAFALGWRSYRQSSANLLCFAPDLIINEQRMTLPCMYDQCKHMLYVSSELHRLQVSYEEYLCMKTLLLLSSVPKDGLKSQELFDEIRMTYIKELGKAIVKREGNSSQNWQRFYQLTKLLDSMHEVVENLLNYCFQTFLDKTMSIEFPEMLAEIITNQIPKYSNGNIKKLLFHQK

Assay [3] addresses T3, Progesterone receptor (Homo sapiens, UniProt P06401).
T3 sequence (P06401 whole entry): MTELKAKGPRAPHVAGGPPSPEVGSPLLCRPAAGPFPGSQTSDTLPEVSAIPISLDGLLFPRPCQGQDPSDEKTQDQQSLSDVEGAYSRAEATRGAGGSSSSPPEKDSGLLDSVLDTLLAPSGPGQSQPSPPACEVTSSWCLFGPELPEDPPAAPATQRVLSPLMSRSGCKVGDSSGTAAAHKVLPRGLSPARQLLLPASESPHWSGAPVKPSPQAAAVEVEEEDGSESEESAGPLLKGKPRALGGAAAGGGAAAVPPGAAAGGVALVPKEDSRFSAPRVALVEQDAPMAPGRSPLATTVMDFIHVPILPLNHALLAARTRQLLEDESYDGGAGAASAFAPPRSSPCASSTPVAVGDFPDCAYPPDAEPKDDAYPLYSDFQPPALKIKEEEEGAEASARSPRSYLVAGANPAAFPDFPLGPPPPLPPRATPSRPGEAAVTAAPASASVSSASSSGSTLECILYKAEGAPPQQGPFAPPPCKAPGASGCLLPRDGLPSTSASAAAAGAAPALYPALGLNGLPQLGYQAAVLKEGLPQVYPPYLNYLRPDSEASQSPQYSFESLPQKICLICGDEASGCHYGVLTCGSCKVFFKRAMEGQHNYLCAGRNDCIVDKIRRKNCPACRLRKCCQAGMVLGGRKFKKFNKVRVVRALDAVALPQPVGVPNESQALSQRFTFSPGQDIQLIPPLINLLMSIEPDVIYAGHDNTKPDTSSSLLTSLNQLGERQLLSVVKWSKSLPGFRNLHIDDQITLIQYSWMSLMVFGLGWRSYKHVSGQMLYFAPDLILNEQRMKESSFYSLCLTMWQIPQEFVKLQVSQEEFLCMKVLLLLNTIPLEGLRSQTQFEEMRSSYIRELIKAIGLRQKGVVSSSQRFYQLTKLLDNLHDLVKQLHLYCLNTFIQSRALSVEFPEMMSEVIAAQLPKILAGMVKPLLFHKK

Assay [4] concerns the target T4, Androgen receptor (Rattus norvegicus, UniProt P15207).
T4 sequence (P15207 whole entry): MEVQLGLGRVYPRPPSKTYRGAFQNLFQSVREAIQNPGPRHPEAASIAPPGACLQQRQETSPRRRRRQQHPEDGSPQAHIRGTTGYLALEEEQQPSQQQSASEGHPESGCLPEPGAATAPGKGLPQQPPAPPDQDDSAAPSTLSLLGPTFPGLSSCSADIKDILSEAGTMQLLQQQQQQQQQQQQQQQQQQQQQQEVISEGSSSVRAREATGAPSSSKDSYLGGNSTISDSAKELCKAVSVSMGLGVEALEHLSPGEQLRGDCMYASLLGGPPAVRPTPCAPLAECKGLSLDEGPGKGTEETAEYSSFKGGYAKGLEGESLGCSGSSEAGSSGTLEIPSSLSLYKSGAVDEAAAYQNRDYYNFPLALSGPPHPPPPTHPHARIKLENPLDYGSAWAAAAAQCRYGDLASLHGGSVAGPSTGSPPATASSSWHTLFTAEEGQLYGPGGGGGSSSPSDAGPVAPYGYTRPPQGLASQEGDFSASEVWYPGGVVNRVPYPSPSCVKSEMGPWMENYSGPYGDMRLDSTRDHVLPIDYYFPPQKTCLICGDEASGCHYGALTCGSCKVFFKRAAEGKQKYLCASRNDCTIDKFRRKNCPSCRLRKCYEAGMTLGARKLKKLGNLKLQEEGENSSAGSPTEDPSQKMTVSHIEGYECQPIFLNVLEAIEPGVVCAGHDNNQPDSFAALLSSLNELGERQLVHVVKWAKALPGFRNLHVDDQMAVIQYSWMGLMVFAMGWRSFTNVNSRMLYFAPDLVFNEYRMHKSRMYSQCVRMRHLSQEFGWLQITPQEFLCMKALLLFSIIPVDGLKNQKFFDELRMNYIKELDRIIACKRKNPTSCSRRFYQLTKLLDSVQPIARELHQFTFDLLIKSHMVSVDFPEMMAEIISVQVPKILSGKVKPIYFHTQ

What is called IC50 is the concentration that inhibits the measured activity by half. By Ki is commonly meant a dissociation constant, usually derived from enzyme kinetics or from competition with a known ligand. Higher therefore signals weaker binding. As for `COC1C=C2C=C3C(=C(C)C(=O)N3C)[C@@H](C)[C@]2(C)CC1OC(=O)N(C)C` (stereo partly drawn) [CP8816], the figures for the IC50 in assay [1] and in assay [3] were greater than 10000 nM and 25 nM, respectively. This compound also came in with a Ki in assay [2] greater than 5000 nM.

With `CNC(=O)OC1C[C@]2(C)C(=CC1O)C=C1C(=C(C)C(=O)N1C)[C@H]2C` (stereo partly drawn) [CP8863], the IC50 is greater than 10000 nM in assay [1], 9700 nM in assay [4] and 40 nM in assay [3]. Besides, in assay [2], the Ki was greater than 10000 nM.

As to `CC(=O)OC1(C(C)=O)CCC2C3CC(C)C4=CC(=O)CCC4(C)C3CCC21C` (stereo not drawn) [NSC_4042], in assay [2], affinity was put at a Ki of 43 nM. This lies in the double-digit nanomolar range.
